# Results: publication PMC8474110 (Journal of Medicinal Chemistry, 2021)
# Where two headings read alike, the source gives them in different places.
# How the values were obtained:
# σ1 receptor = biological target: T1, σ1 receptor (Cavia porcellus, UniProt Q60492); test: σ1 receptor binding assay, [3H]-(+)-pentazocine, guinea pig brain membranes
# T1 construct: from tissue; host or cells: guinea pig brain membranes
# Experimental: (§1) The σ1 and σ2 receptor binding studies were performed according to the literature.[46],[47] Briefly, for the σ1 receptor binding assay, guinea pig brain membranes (400 μL, 500 μg protein) were incubated for 150 min at 37 °C with 3 nM of the radiolabeled ligand [^3H]-(+)-pentazocine (45 Ci/mmol) and increasing concentrations of tested compounds in 50 mM Tris-HCl (pH 7.4) to a total volume of 1 mL. […] Moreover, σ2 receptor binding assays were made according to the following protocol: the guinea pig brain membranes (300 μL, 360 μg protein) were incubated for 120 min at room temperature with 3 nM [^3H]-DTG (31 Ci/mmol) in the presence of 0.4 mM […] (+)-SKF10,047 to block the σ1 sites. The incubation was performed in 50 mM Tris-HCl (pH 8.0) to a total volume of 0.5 mL with increasing concentrations of each test compound. Nonspecific binding was evaluated in the presence of 5 μM DTG.
# (§2) Each sample was filtered through Whatman GF/B glass fiber filters, which were presoaked for 1 h in a 0.5% poly(ethylenimine) solution, using a Millipore filter apparatus. Filters were washed twice with 4 mL of ice-cold buffer. Radioactivity was counted in 4 mL of “Ultima Gold MV” in a 1414 WinSpectral PerkinElmer Wallac or Beckman LS6500 scintillation counter. Inhibition constants (Ki values) were calculated using the EBDA/LIGAND program purchased from Elsevier/Biosoft.
# [1] = system: HREC stimulated with VEGF-A; test: Crystal violet proliferation assay in HREC with or without VEGF-A; format: cell-based, human; conditions: 24 h; for effect of coincubation with AC927 on the compound's anti-VEGF-A activity on HREC proliferation: 5 μM compound + 2 μM AC927 (σ2 antagonist); for effect of coincubation with AC927 on the compound's anti-VEGF-A activity on HREC proliferation / effect of coincubation with PTZ on the compound's anti-VEGF-A activity on HREC proliferation / effect on VEGF-A-mediated HREC proliferation: 80 ng/mL VEGF-A; for effect of coincubation with PTZ on the compound's anti-VEGF-A activity on HREC proliferation: 5 μM compound + 2 μM PTZ (σ1 agonist); for effect on VEGF-A-mediated HREC proliferation / effect on HREC proliferation under basal conditions: 5 μM; for effect on HREC proliferation under basal conditions: no VEGF-A
# Experimental: As expected, VEGF-A exerted a proangiogenic effect by increasing cell proliferation by about 45% (at 24 h) with respect to the untreated control (Figure 2).
# Control cells received an equal volume of vehicle (DMSO). At the end of the treatment, each well was washed with phosphate-buffered saline (PBS). Following this, the cells were fixed (in 4% paraformaldehyde) and stained with crystal violet solution (0.5% in 20% methanol for HREC or 1% aqueous solution for 92-1 cells). Subsequently, the plate was washed with water and left to dry. Crystal violet staining was evaluated by measuring the absorbance at 570 nm or 590 nm, after crystal violet extraction with 10% acetic acid (at room temperature for 10 min), with a microplate reader with the plate reader (Synergy 2-BioTek). For quantification, each assay was carried out in triplicate.
# HREC [2] = test: MTT viability test on HREC; format: cell-based; conditions: Homo sapiens
# Experimental: To dissect enantiomer contributions to antiangiogenic effects by (±)-1, compounds (+)-1 and (−)-1 were evaluated on HREC, an endothelial cell model of angiogenesis.[40] First, HREC viability was assessed by the 3-[4,5–dimethylthiazol-2-yl]-2,5-diphenyltetrazolium bromide (MTT) assay to verify the tolerability of the enantiomers, and different concentrations (1.0, 2.5, 5.0, 10.0, and 20.0 μM) of the compounds were tested for 24, 48, and 72 h. The IC50 values of (+)-1 and (−)-1 were calculated and compared to (±)-1 and its precursors (Table 3).
# For cell viability assays, the 3-[4,5–dimethylthiazol-2-yl]-2,5-diphenyltetrazolium bromide (MTT assay, Chemicon, Temecula, CA) was used. The cells were seeded in 96-well plates at a density of 1.5 × 10^4 cells/well and were incubated overnight at 37 °C before the experiment. Afterward, the cells were treated for 24, 48, and 72 h in the presence of different concentrations (1.0, 2.5, 5.0, 10.0, 20.0 μM) of (±)-1, (+)-1, or (−)-1. After the treatments, the cells were incubated with MTT (5 mg/mL) for 3 h, and then 100 μL of dimethyl sulfoxide was added, and the absorbance was read in a plate reader (Synergy 2-BioTek) with a wavelength of 570 nm.
# σ2 receptor = biological target: T2, σ2 receptor (Cavia porcellus, UniProt H0V073); test: σ2 receptor binding assay, [3H]-DTG, guinea pig brain membranes
# T2 construct: the guinea pig brain membranes (300 μL, 360 μg protein) were incubated for 120 min at room temperature with 3 nM [^3H]-DTG; from tissue; host or cells: guinea pig brain membranes
# T2 sequence (H0V073 1-176): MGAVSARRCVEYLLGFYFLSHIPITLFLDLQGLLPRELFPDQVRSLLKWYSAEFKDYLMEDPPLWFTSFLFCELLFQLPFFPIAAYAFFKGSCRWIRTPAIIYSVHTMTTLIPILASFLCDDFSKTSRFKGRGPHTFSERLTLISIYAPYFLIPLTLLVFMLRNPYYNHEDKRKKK
# Experimental: as §1, §2
# [3] = system: VEGF-A-stimulated human retinal endothelial cells (HRECs); parameters: method as in PMID 27739690; conditions: cited from earlier work
# HREC [4] = conditions: cited from earlier work
# [5] = Chemical stability (kinetics of chemical hydrolysis) in buffer solutions; format: physicochemical; conditions: for half-life at 9.1 µM: read-out: t1/2, chemical stability (converted)
# Experimental: The chemical stability of (±)-1 was evaluated in buffer solutions at pH 1.3 and 7.4 (Table 1).
# A 0.02 M phosphate buffer (PBS, pH 7.4) and a 0.02 M hydrochloric buffer (pH 1.3) containing 0.1% (v/v) Cremophor ELP, was used to evaluate chemical stabilities at physiological pHs. The reaction was initiated by adding 1 mL of 10^–4 M stock solution (in acetonitrile) of the compound to 10 mL of thermostated (37 ± 0.5 °C) buffer solution. At established time points, the samples (20 μL) were withdrawn and analyzed by HPLC. Pseudo-first-order rate constants (kobs) for the hydrolysis of the compounds were then calculated considering the slopes of the linear plots of log (% residual compound) against time. The analyses were run in triplicate, and the mean values of the rate constants were calculated.
# [6] = 24 h, read-out: IC50, MTT viability test on HREC
# [7] = 24 h, read-out: pIC50 ± SE, MTT viability test on HREC (converted)
# [8] = 48 h, read-out: IC50, MTT viability test on HREC
# [9] = 48 h, read-out: pIC50 ± SE, MTT viability test on HREC (converted)
# [10] = 72 h, read-out: IC50, MTT viability test on HREC
# [11] = 72 h, read-out: pIC50 ± SE, MTT viability test on HREC (converted)
# T1 sequence (Q60492 whole entry): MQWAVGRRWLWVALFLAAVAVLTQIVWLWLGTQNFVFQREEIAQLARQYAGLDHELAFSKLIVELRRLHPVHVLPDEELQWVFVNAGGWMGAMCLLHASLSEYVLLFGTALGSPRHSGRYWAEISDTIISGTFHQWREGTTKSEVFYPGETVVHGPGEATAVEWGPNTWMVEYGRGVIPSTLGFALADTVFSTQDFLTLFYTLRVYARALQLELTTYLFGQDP
SMILES,Ki (σ1 receptor) [µM],effect of coincubation with AC927 on the compound's anti-VEGF-A activity on HREC proliferation [1],effect of coincubation with PTZ on the compound's anti-VEGF-A activity on HREC proliferation [1],effect on VEGF-A-mediated HREC proliferation [1],effect on HREC proliferation under basal conditions [1],IC50 (HREC [2]; [6]) [µM],IC50 (HREC [2]; [7]) [µM],IC50 (HREC [2]; [8]) [µM],IC50 (HREC [2]; [9]) [µM],IC50 (HREC [2]; [10]) [µM],IC50 (HREC [2]; [11]) [µM],Ki (σ2 receptor) [µM],further results
CCCC(CCC)C(=O)O[C@H](CCCN1CCC(O)(c2ccc(Cl)cc2)CC1)c1ccc(F)cc1 [(+)-1],0.064 ± 0.0082,did not alter,did not alter,completely prevented,did not induce significant changes,9.8,9.77,6.4,6.46,4.4,4.47,0.074 ± 0.0089,
CCCC(CCC)C(=O)OC(CCCN1CCC(O)(c2ccc(Cl)cc2)CC1)c1ccc(F)cc1 (racemic) [(±)-1],,,partially counteracted,completely prevented,did not induce significant changes,,,,,,,,"reduction of cell migration and proliferation, times more than (±)-HP-mII [3]: 20 times; reduction of cell migration and proliferation, times more than VPA [3]: 120 times; pIC50 ± SE, MTT viability test on HREC (HREC [4]; 24 h): 4.98 ± 0.02; pIC50 ± SE, MTT viability test on HREC (HREC [4]; 48 h): 4.95 ± 0.03; pIC50 ± SE, MTT viability test on HREC (HREC [4]; 72 h): 4.99 ± 0.04; Kobs, chemical stability ([5]; buffer pH 1.3, 37 °C): 0.007 ± 0.001 h^–1; Kobs, chemical stability ([5]; buffer pH 7.4, 37 °C): 0.007 ± 0.001 h^–1; time the racemate was stable ([5]; buffer solutions at pH 1.3 and 7.4 (both environments)): about 4 days; half-life at 9.1 µM ([5]; hydrochloric buffer, buffer pH 1.3, 37 °C): 100 ± 3.1 h; half-life at 9.1 µM ([5]; phosphate buffer, buffer pH 7.4, 37 °C): 96.4 ± 1.6 h"
CCCC(CCC)C(=O)O[C@@H](CCCN1CCC(O)(c2ccc(Cl)cc2)CC1)c1ccc(F)cc1 [(−)-1],0.016 ± 0.0017,did not alter,did not alter,completely prevented,did not induce significant changes,10.1,10.7,9,9.12,6.8,6.92,0.056 ± 0.0064,
